Laboratory results from patent US20240376073A1 (Hoffmann-La Roche Inc., priority 2021, published 2024).
Where a name gives a salt, the structure may show the parent alone. Read-outs that look alike come from different tables or passages of the source.

Tested on: Acinetobacter baumannii ATCC17961
Test: Antimicrobial susceptibility testing: 90% growth inhibitory concentration (IC90) determination
Format: cell-based
Details: Iso-Sensitest broth, growth by OD 600 nm over 16 h, 35±2° C.
How it was run: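 Twofold serial dilutions (e.g. 50 to 0.097 μM final) in Iso-Sensitest broth, inoculated at ~5×10^(5) CFU/ml, incubated at 35±2° C. OD600 read every 20 min over 16 h; IC90 derived from growth inhibition during logarithmic growth.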

[1] = Acinetobacter baumannii ATCC17961, read-out: ATCC 17961 IC90
[2] = Acinetobacter baumannii, ATCC17961, 16 h, read-out: ATCC 17961 IC90, Acinetobacter baumannii ATCC17961

IC90 [1]	Structure (SMILES)	IC90 [2]
170 nM	Cn1c(-c2ccc(OCF)cc2F)cnc1C(=O)Nc1ccc(C(=O)N2CCN(C(=O)C[N+](C)(C)C)CC2)c(Cl)c1 [Example B22, [2-[4-[2-chloro-4-[5-[2-fluoro-4-(fluoromethoxy)phenyl]-1-methyl-imidazole-2-carbonyl]amino]benzoyl]piperazin-1-yl]-2-oxo-ethyl]-trimethyl-ammonium; formate]	–
410 nM	CCc1cc(NC(=O)c2ncc(-c3ccc(OC)c(F)c3F)n2C)ccc1C(=O)N1CCC(C(=O)NCCOCC[N+](C)(C)C)CC1 [Example B23, 2-(2-(1-(4-(5-(2,3-difluoro-4-methoxyphenyl)-1-methyl-1H-imidazole-2-carboxamido)-2-ethylbenzoyl)piperidine-4-carboxamido)ethoxy)-N,N,N-trimethylethan-1-aminium iodide]	–
120 nM	Cn1c(-c2ccc(OCC#N)c(F)c2F)cnc1C(=O)Nc1ccc(C(=O)N2CCC(C(=O)N[C@H]3CC[N+](C)(C)C3)CC2)c(Cl)c1 [Example B24, (S)-3-(1-(2-chloro-4-(5-(4-(cyanomethoxy)-2,3-difluorophenyl)-1-methyl-1H-imidazole-2-carboxamido)benzoyl)piperidine-4-carboxamido)-1,1-dimethylpyrrolidin-1-ium formate]	–
120 nM	COc1ccc(-c2cnc(C(=O)Nc3ccc(C(=O)N4CCN(C(=O)[C@@H]5C[C@@H](O)C[N+]5(C)C)CC4)c(Cl)c3)n2C)c(F)c1F [Example B25, (2S,4R)-2-(4-(2-chloro-4-(5-(2,3-difluoro-4-methoxyphenyl)-1-methyl-1H-imidazole-2-carboxamido)benzoyl)piperazine-1-carbonyl)-4-hydroxy-1,1-dimethylpyrrolidin-1-ium formate]	–
540 nM	Cc1cc(NC(=O)c2ncc(-c3ccc(OCC#N)c(F)c3F)n2C)ccc1C(=O)N1CCN(C(=O)C2(O)CC[N+](C)(C)CC2)CC1 [Example B26, 4-(4-(4-(5-(4-(cyanomethoxy)-2,3-difluorophenyl)-1-methyl-1H-imidazole-2-carboxamido)-2-methylbenzoyl)piperazine-1-carbonyl)-4-hydroxy-1,1-dimethylpiperidin-1-ium formate]	–
170 nM	Cn1c(-c2ccc(OCC#N)c(F)c2F)cnc1C(=O)Nc1ccc(C(=O)N2CCN(C(=O)[C@@H]3C[C@](C)(O)C[N+]3(C)C)CC2)c(Cl)c1 [Example B27, (2S,4S)-2-(4-(2-chloro-4-(5-(4-(cyanomethoxy)-2,3-difluorophenyl)-1-methyl-1H-imidazole-2-carboxamido)benzoyl)piperazine-1-carbonyl)-4-hydroxy-1,1,4-trimethylpyrrolidin-1-ium formate]	–
220 nM	Cc1cc(NC(=O)c2ncc(-c3ccc(OCC#N)c(F)c3F)n2C)ccc1C(=O)N1CCN(C(=O)N[C@@H]2C[N+](C)(C)C[C@H]2O)CC1 [Example B28, (3R,4R)-3-(4-(4-(5-(4-(cyanomethoxy)-2,3-difluorophenyl)-1-methyl-1H-imidazole-2-carboxamido)-2-methylbenzoyl)piperazine-1-carboxamido)-4-hydroxy-1,1-dimethylpyrrolidin-1-ium formate]	–
250 nM	Cc1cc(NC(=O)c2ncc(-c3ccc(OCC#N)c(F)c3F)n2C)ccc1C(=O)N1CCN(C(=O)N[C@H]2C[N+](C)(C)C[C@@H]2O)CC1 [Example B29, (3S,4S)-3-(4-(4-(5-(4-(cyanomethoxy)-2,3-difluorophenyl)-1-methyl-1H-imidazole-2-carboxamido)-2-methylbenzoyl)piperazine-1-carboxamido)-4-hydroxy-1,1-dimethylpyrrolidin-1-ium formate]	–
110 nM	COc1ccc(-c2cnc(C(=O)Nc3ccc(C(=O)N4CCN(C(=O)[C@@H]5C[C@@](C)(O)C[N+]5(C)C)CC4)c(Cl)c3)n2C)c(F)c1F [Example B30, (2S,4R)-2-(4-(2-chloro-4-(5-(2,3-difluoro-4-methoxyphenyl)-1-methyl-1H-imidazole-2-carboxamido)benzoyl)piperazine-1-carbonyl)-4-hydroxy-1,1,4-trimethylpyrrolidin-1-ium formate]	–
250 nM	Cn1c(-c2ccc(OCC#N)c(F)c2F)cnc1C(=O)Nc1ccc(C(=O)N2CCC(C(=O)N3CC([N+](C)(C)C)C3)CC2)c(Cl)c1 [Example B31, [1-[1-[2-chloro-4-[[5-[4-(cyanomethoxy)-2,3-difluoro-phenyl]-1-methyl-imidazole-2-carbonyl]amino]benzoyl]piperidine-4-carbonyl]azetidin-3-yl]-trimethyl-ammonium; formate]	–
200 nM	COc1ccc(-c2cnc(C(=O)Nc3ccc(C(=O)NCc4cnn(CC(=O)N5CC[N+](C)(C)CC5)c4)c(Cl)c3)n2C)c(F)c1F [Example B32, N-[3-chloro-4-[1-[2-(4,4-dimethylpiperazin-4-ium-1-yl)-2-oxo-ethyl]pyrazol-4-yl]methylcarbamoyl]phenyl]-5-(2,3-difluoro-4-methoxy-phenyl)-1-methyl-imidazole-2-carboxamide; formate]	–
130 nM	COc1ccc(-c2cnc(C(=O)Nc3ccc(C(=O)N4CCN(C(=O)C5CC[N+](C)(C)CC5O)CC4)c(Cl)c3)n2C)c(F)c1F (stereo not shown) [Example B33, N-[3-chloro-4-[4-(3-hydroxy-1,1-dimethyl-piperidin-1-ium-4-carbonyl)piperazine-1-carbonyl]phenyl]-5-(2,3-difluoro-4-methoxy-phenyl)-1-methyl-imidazole-2-carboxamide; formate]	–
–	COc1ccc(-c2cnc(C(=O)Nc3ccc(C(=O)N4CCN(C(=O)[C@@H]5C[C@H](O)C[N+]5(C)C)CC4)c(Cl)c3)n2C)c(F)c1F [Example B34, N-[3-chloro-4-[4-[(2S,4S)-4-hydroxy-1,1-dimethyl-pyrrolidin-1-ium-2-carbonyl]piperazine-1-carbonyl]phenyl]-5-(2,3-difluoro-4-methoxy-phenyl)-1-methyl-imidazole-2-carboxamide; formate]	140 nM
130 nM	COc1ccc(-c2cnc(C(=O)Nc3ccc(C(=O)N4CCN(C(=O)[C@@H]5COCC[N+]5(C)C)CC4)c(Cl)c3)n2C)c(F)c1F [Example B35, N-[3-chloro-4-[4-[(3S)-4,4-dimethylmorpholin-4-ium-3-carbonyl]piperazine-1-carbonyl]phenyl]-5-(2,3-difluoro-4-methoxy-phenyl)-1-methyl-imidazole-2-carboxamide; iodide]	–
–	COc1ccc(-c2cnc(C(=O)Nc3ccc(C(=O)N4CCN(C(=O)[C@@H]5[C@@H](O)CC[N+]5(C)C)CC4)c(Cl)c3)n2C)c(F)c1F [Example B36, N-[3-chloro-4-[4-[(2S,3S)-3-hydroxy-1,1-dimethyl-pyrrolidin-1-ium-2-carbonyl]piperazine-1-carbonyl]phenyl]-5-(2,3-difluoro-4-methoxy-phenyl)-1-methyl-imidazole-2-carboxamide; formate]	220 nM
–	COc1ccc(-c2cnc(C(=O)Nc3ccc(C(=O)N4CCN(C(=O)[C@@H]5C[C@H](O)CC[N+]5(C)C)CC4)c(Cl)c3)n2C)c(F)c1F [Example B38, N-[3-chloro-4-[4-[(2S,4R)-4-hydroxy-1,1-dimethyl-piperidin-1-ium-2-carbonyl]piperazine-1-carbonyl]phenyl]-5-(2,3-difluoro-4-methoxy-phenyl)-1-methyl-imidazole-2-carboxamide; formate]	180 nM
